This note sets out measurements from patent publication US20260008818A1, “CYCLIC PEPTIDE OR SALT THEREOF, AND USES THEREOF” (FUJIFILM Corporation, priority 2023, published 2026).

Bridge positions count the residues as written; N and C are the ends. Ends that are not written are not given here. COCH2 = acetyl group that carries the bridge

This experiment concerns Recombinant Human FGFR1 alpha (IIIc) Fc Chimera Protein. Put plainly: Binding affinity of enzymatically synthesized cyclic peptide to FGFR by ELISA. The conditions noted are these: luminescence signal at reaction concentration 10 nmol/L, SEQ ID NO: 39 standardized to 1, enzyme synthesis product. An outline of the steps: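 Graded A–D from luminescence at 10 nmol/L peptide, expressed relative to SEQ ID NO: 39 after subtracting wells lacking receptor. Read-out used anti-Myc antibody (2 h, RT) with chemiluminescent substrate, following 3 h RT binding of peptide to immobilized FGFR1α(IIIc)-Fc, 5 ng per well.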
Take “214 (HCSYERLQFHGHEAPFRVK(COCH2)F; thioether 2-19 via Ac; not fully specified) [compound 214]”: the “Evaluation result of binding affinity to FGFR” value (from here on “Evaluation result”) was “B (0.5 or more and less than 0.7)”.

On to “43 (SCWQQLVWFQFEAPFLVK(COCH2)V; thioether 2-18 (inferred)) [compound 43]”, for which the “Evaluation result” value is “C (0.1 or more and less than 0.5)”.

As for “276 (QCYVQLYVWGHPAPFYWDK(COCH2)S; thioether 2-19 (inferred)) [compound 276]”, the “Evaluation result” value is “C (0.1 or more and less than 0.5)”.

As for “295 (MCSYERLQFHGHEAPFRVK(COCH2)V; thioether 2-19 (inferred)) [compound 295]”, the “Evaluation result” value is “A (0.7 or more)”.

Turning to “230 (HK(COCH2)QWERLIFLGHIAPFWVCR; thioether 2-19 (inferred)) [compound 230]”, the “Evaluation result” value was “B (0.5 or more and less than 0.7)”.

“34 (CRALLRGAPFHLAEC; disulfide 1-15) [compound 34]”: the “Evaluation result” value is “D (less than 0.1)”.

As for “185 (HCSYERLQFHGHQAPFRVK(COCH2)V; thioether 2-19 via Ac) [compound 185]”, the “Evaluation result” value is “A (0.7 or more)”.

For the substance “154 (HCSYERLTFHGHEAPFRVK(COCH2)V; thioether 2-19 (inferred)) [compound 154]”, the “Evaluation result” value is “A (0.7 or more)”.

With “288 (HCSYERLQFKGHEAPFRVK(COCH2)V; thioether 2-19 (inferred)) [compound 288]”, the “Evaluation result” value is “B (0.5 or more and less than 0.7)”.

As to “370 (CYERLIFHGHEAPFWVK(COCH2)V; thioether 1-17) [compound 370]”, the “Evaluation result” value was “A (0.7 or more)”.

Regarding “258 (ECYHKLIFLGWEAPFWHK(COCH2)E; thioether 2-18 (inferred)) [compound 258]”, the “Evaluation result” value is on record as “A (0.7 or more)”.

As for “109 (HCSYERLQFHSHEAPFRVK(COCH2)V; thioether 2-19 (inferred)) [compound 109]”, the “Evaluation result” value was “C (0.1 or more and less than 0.5)”.

In the case of “283 (KCSYERLQFHGHEAPFRVK(COCH2)V; thioether 2-19 (inferred)) [compound 283]”, the “Evaluation result” value is “B (0.5 or more and less than 0.7)”.

Regarding “261 (QCQWNIYRHQWAPFWVIEK(COCH2)S; thioether 2-19 (inferred)) [compound 261]”, the “Evaluation result” value was “C (0.1 or more and less than 0.5)”.

On to “145 (HCSYERLGFHGHEAPFRVK(COCH2)V; thioether 2-19 (inferred)) [compound 145]”, for which the “Evaluation result” value was “C (0.1 or more and less than 0.5)”.

As for “226 (HK(COCH2)TWERLIFLGHIAPFWVCR; thioether 2-19 (inferred)) [compound 226]”, the “Evaluation result” value is “B (0.5 or more and less than 0.7)”.

Turning to “216 (HCSYERLQFHGHEAPFRVK(COCH2)N; thioether 2-19 via Ac; not fully specified) [compound 216]”, the “Evaluation result” value was “A (0.7 or more)”.

Regarding “255 (RCWRQIRYGQLLAPFLVK(COCH2)Q; thioether 2-18 (inferred)) [compound 255]”, the “Evaluation result” value is “C (0.1 or more and less than 0.5)”.

For the substance “113 (HCSYERLQFHGHEGPFRVK(COCH2)V; thioether 2-19 (inferred)) [compound 113]”, the “Evaluation result” value is “C (0.1 or more and less than 0.5)”.

In the case of “337 (ACLPFLRIIIAGHWAPFLAK(COCH2)Q; thioether 2-20 (inferred)) [compound 337]”, the “Evaluation result” value is “C (0.1 or more and less than 0.5)”.

Take “174 (HCSYERLQFEGHEAPFRVK(COCH2)V; thioether 2-19 (inferred)) [compound 174]”: the “Evaluation result” value was “B (0.5 or more and less than 0.7)”.

In the case of “231 (HK(COCH2)TFERLIFLGHIAPFWVCR; thioether 2-19 (inferred)) [compound 231]”, the “Evaluation result” value is “B (0.5 or more and less than 0.7)”.

Consider “190 (HCSYERLQFHGHHAPFRVK(COCH2)V; thioether 2-19 via Ac) [compound 190]”, for which the “Evaluation result” value is “A (0.7 or more)”.

Regarding “186 (HCSYERLQFHGHSAPFRVK(COCH2)V; thioether 2-19 via Ac) [compound 186]”, the “Evaluation result” value is listed as “A (0.7 or more)”.

For “327 (HCSYERLIFHGHEAPFWVK(COCH2)V; thioether 2-19 (inferred)) [compound 327]”, the “Evaluation result” value is given as “A (0.7 or more)”.

As to “148 (HCSYERLVFHGHEAPFRVK(COCH2)V; thioether 2-19 (inferred)) [compound 148]”, the “Evaluation result” value is reported as “A (0.7 or more)”.

Turning to “301 (HCSYERLMFHGHEAPFRVK(COCH2)V; thioether 2-19 (inferred)) [compound 301]”, the “Evaluation result” value was “A (0.7 or more)”.

With “129 (HCSYQRLQFHGHEAPFRVK(COCH2)V; thioether 2-19 (inferred)) [compound 129]”, the “Evaluation result” value is recorded as “A (0.7 or more)”.

In the case of “57 (HCAYERLQFHGHEAPFRVK(COCH2)V; thioether 2-19 (inferred)) [compound 57]”, the “Evaluation result” value was “A (0.7 or more)”.

As to “307 (HCSYERLQFHGHEAPFMVK(COCH2)V; thioether 2-19 (inferred)) [compound 307]”, the “Evaluation result” value is “A (0.7 or more)”.

Regarding “292 (HCSYERLQFHGHEAPFKVK(COCH2)V; thioether 2-19 (inferred)) [compound 292]”, the “Evaluation result” value was “B (0.5 or more and less than 0.7)”.

As to “294 (HCSYERLQFHGHEAPFRVK(COCH2)K; thioether 2-19 (inferred)) [compound 294]”, the “Evaluation result” value is reported as “A (0.7 or more)”.

On to “128 (HCSYNRLQFHGHEAPFRVK(COCH2)V; thioether 2-19 (inferred)) [compound 128]”, for which the “Evaluation result” value was “B (0.5 or more and less than 0.7)”.

“139 (HCSYEQLQFHGHEAPFRVK(COCH2)V; thioether 2-19 (inferred)) [compound 139]”: the “Evaluation result” value was “B (0.5 or more and less than 0.7)”.

Turning to “104 (HCSHERLQFHGHEAPFRVK(COCH2)V; thioether 2-19 (inferred)) [compound 104]”, the “Evaluation result” value was “C (0.1 or more and less than 0.5)”.

Regarding “306 (HCSYERLQFHGHEAMFRVK(COCH2)V; thioether 2-19 (inferred)) [compound 306]”, the “Evaluation result” value is “C (0.1 or more and less than 0.5)”.

Turning to “264 (ACQWGRWALQGHQVPFLTK(COCH2)I; thioether 2-19 (inferred)) [compound 264]”, the “Evaluation result” value is “A (0.7 or more)”.

Turning to “352 (ICINRLSQGTHFAPFWLVEYK(COCH2)N; thioether 2-21) [compound 352]”, the “Evaluation result” value is “B (0.5 or more and less than 0.7)”.

In the case of “50 (WCRLKLLGHDAPFIK(COCH2)W; thioether 2-15 (inferred)) [compound 50]”, the “Evaluation result” value was “B (0.5 or more and less than 0.7)”.

For the substance “158 (HCSYERLQLHGHEAPFRVK(COCH2)V; thioether 2-19 (inferred)) [compound 158]”, the “Evaluation result” value was “B (0.5 or more and less than 0.7)”.

For “247 (ACKYVPHIFQQHQAPYLVK(COCH2)S; thioether 2-19 (inferred)) [compound 247]”, the “Evaluation result” value was “B (0.5 or more and less than 0.7)”.

Take “240 (HK(COCH2)TWERLIFLGHIAPFHVCR; thioether 2-19 (inferred)) [compound 240]”: the “Evaluation result” value is on record as “A (0.7 or more)”.

On to “293 (HCSYERLQFHGHEAPFRKK(COCH2)V; thioether 2-19 (inferred)) [compound 293]”, for which the “Evaluation result” value was “C (0.1 or more and less than 0.5)”.

Consider “66 (HCSYERLQFHGHEAPFRVK(COCH2)A; thioether 2-19 (inferred)) [compound 66]”, for which the “Evaluation result” value is “A (0.7 or more)”.

Regarding “329 (HCSYERLRFHGHIAPFWVK(COCH2)V; thioether 2-19 (inferred)) [compound 329]”, the “Evaluation result” value is “A (0.7 or more)”.

As for “363 (TCSILKHPWGAPFLVK(COCH2)T; thioether 2-16) [compound 363]”, the “Evaluation result” value is “C (0.1 or more and less than 0.5)”.

With “274 (QCYVQLYFWGHPAPFYWDK(COCH2)T; thioether 2-19 (inferred)) [compound 274]”, the “Evaluation result” value is “C (0.1 or more and less than 0.5)”.

As for “121 (HCSYPRLQFHGHEAPFRVK(COCH2)V; thioether 2-19 (inferred)) [compound 121]”, the “Evaluation result” value is “A (0.7 or more)”.

On to “159 (HCSYERLQIHGHEAPFRVK(COCH2)V; thioether 2-19 (inferred)) [compound 159]”, for which the “Evaluation result” value is “C (0.1 or more and less than 0.5)”.

For “45 (YCFQKLEFFGHLAPFLFK(COCH2)S; thioether 2-18 (inferred)) [compound 45]”, the “Evaluation result” value is “B (0.5 or more and less than 0.7)”.

On to “59 (HCSYEALQFHGHEAPFRVK(COCH2)V; thioether 2-19 (inferred)) [compound 59]”, for which the “Evaluation result” value was “C (0.1 or more and less than 0.5)”.

Regarding “267 (ACRWAQLQFLSWGAPFLVK(COCH2)T; thioether 2-19 (inferred)) [compound 267]”, the “Evaluation result” value was “C (0.1 or more and less than 0.5)”.

With “184 (HCSYERLQFHGHNAPFRVK(COCH2)V; thioether 2-19 via Ac) [compound 184]”, the “Evaluation result” value is on record as “A (0.7 or more)”.
